Reference: the CheMixHub viscosity set

Experiment: xn = mol fraction of the nth substance listed

COCCOCCOCCOC + CCOC(C)=O
viscosity [mPa·s], 101.3 kPa
Details	298.15 K	308.15 K	318.15 K
x1 = 0.0071	0.436	0.391	0.358
x1 = 0.0233	0.454	0.406	0.369
x1 = 0.0549	0.488	0.434	0.395
x1 = 0.0836	0.522	0.464	0.417
x1 = 0.1198	0.564	0.498	0.447
x1 = 0.1684	0.626	0.548	0.489
x1 = 0.2665	0.752	0.651	0.574
x1 = 0.3217	0.833	0.717	0.624
x1 = 0.3905	0.931	0.796	0.69
x1 = 0.4265	0.985	0.841	0.725
x1 = 0.4683	1.058	0.895	0.769
x1 = 0.522	1.141	0.963	0.823
x1 = 0.5558	1.196	1.002	0.856
x1 = 0.6015	1.267	1.058	0.903
x1 = 0.6458	1.34	1.119	0.949
x1 = 0.725	1.479	1.223	1.028
x1 = 0.741	1.504	1.244	1.045
x1 = 0.7798	1.572	1.297	1.085
x1 = 0.8318	1.616	1.366	1.139
x1 = 0.8823	1.754	1.433	1.194
x1 = 0.9348	1.846	1.51	1.247
x1 = 0.9606	1.89	1.542	1.276

CC(C)(C)O + CN1CCCC1=O
298.15 K, 101 kPa
Details	viscosity [mPa·s]
x2 = 0.0522	4.027
x2 = 0.1107	3.478
x2 = 0.2046	2.892
x2 = 0.2528	2.676
x2 = 0.3034	2.494
x2 = 0.3557	2.342
x2 = 0.4023	2.234
x2 = 0.4562	2.13
x2 = 0.4773	2.095
x2 = 0.4998	2.064
x2 = 0.5605	1.981
x2 = 0.5966	1.942
x2 = 0.6533	1.885
x2 = 0.7046	1.842
x2 = 0.7461	1.809
x2 = 0.8029	1.775
x2 = 0.8498	1.745
x2 = 0.9007	1.719
x2 = 0.9581	1.688

CCC(O)CO (stereo unspecified) + CN1CCCC1=O
Details	viscosity [mPa·s]
298.15 K, 101.33 kPa, x2 = 0.0654	38.07
298.15 K, 101.33 kPa, x2 = 0.1029	31.55
298.15 K, 101.33 kPa, x2 = 0.2083	19.25
298.15 K, 101.33 kPa, x2 = 0.3075	12.65
298.15 K, 101.33 kPa, x2 = 0.3987	8.95
298.15 K, 101.33 kPa, x2 = 0.4992	6.384
298.15 K, 101.33 kPa, x2 = 0.5997	4.714
298.15 K, 101.33 kPa, x2 = 0.6958	3.61
298.15 K, 101.33 kPa, x2 = 0.8118	2.663
298.15 K, 101.33 kPa, x2 = 0.9111	2.083
298.15 K, 101.33 kPa, x2 = 0.9632	1.837
308.15 K, 101 kPa, x1 = 0.0282	1.835
308.15 K, 101 kPa, x1 = 0.0564	2.019
308.15 K, 101 kPa, x1 = 0.1026	2.039
308.15 K, 101 kPa, x1 = 0.1884	2.067
308.15 K, 101 kPa, x1 = 0.3027	3.253
308.15 K, 101 kPa, x1 = 0.4056	3.955
308.15 K, 101 kPa, x1 = 0.4941	4.933
308.15 K, 101 kPa, x1 = 0.6024	6.647
308.15 K, 101 kPa, x1 = 0.6843	8.612
308.15 K, 101 kPa, x1 = 0.7939	12.61
308.15 K, 101 kPa, x1 = 0.888	17.95
308.15 K, 101 kPa, x1 = 0.9396	22.95
308.15 K, 101 kPa, x1 = 0.9764	27.1
308.15 K, 101.33 kPa, x2 = 0.05493	22.04
308.15 K, 101.33 kPa, x2 = 0.1102	17.39
308.15 K, 101.33 kPa, x2 = 0.1762	13.32
308.15 K, 101.33 kPa, x2 = 0.2999	8.57
308.15 K, 101.33 kPa, x2 = 0.3972	6.231
308.15 K, 101.33 kPa, x2 = 0.4977	4.671
308.15 K, 101.33 kPa, x2 = 0.6026	3.551
308.15 K, 101.33 kPa, x2 = 0.6974	2.829
308.15 K, 101.33 kPa, x2 = 0.8019	2.225
308.15 K, 101.33 kPa, x2 = 0.9106	1.745
308.15 K, 101.33 kPa, x2 = 0.9521	1.595
318.15 K, 101.33 kPa, x2 = 0.05598	13.51
318.15 K, 101.33 kPa, x2 = 0.1062	11.16
318.15 K, 101.33 kPa, x2 = 0.2044	7.948
318.15 K, 101.33 kPa, x2 = 0.2997	5.996
318.15 K, 101.33 kPa, x2 = 0.4011	4.469
318.15 K, 101.33 kPa, x2 = 0.4992	3.505
318.15 K, 101.33 kPa, x2 = 0.6003	2.789
318.15 K, 101.33 kPa, x2 = 0.702	2.252
318.15 K, 101.33 kPa, x2 = 0.8041	1.83
318.15 K, 101.33 kPa, x2 = 0.9081	1.49
318.15 K, 101.33 kPa, x2 = 0.951	1.373

Nc1ccccc1 + CN1CCCC1=O
viscosity [mPa·s], 101 kPa
Details	x2 = 0.0954	x2 = 0.1918	x2 = 0.2892	x2 = 0.3876	x2 = 0.487	x2 = 0.5875	x2 = 0.689	x2 = 0.7915	x2 = 0.8952
303.15 K	2.963	2.89	2.81	2.705	2.55	2.34	2.15	1.964	1.76
308.15 K	2.57	2.51	2.445	2.34	2.187	2.035	1.875	1.736	1.571
313.15 K	2.25	2.2	2.13	2.05	1.95	1.83	1.7	1.58	1.445
318.15 K	1.99	1.94	1.89	1.825	1.735	1.623	1.52	1.417	1.309

C1COCCOCCOCCOCCO1 + CN(C)C=O
101 kPa
Details	viscosity [mPa·s]
293.15 K, x1 = 0.00344	0.8668
293.15 K, x1 = 0.0059	0.8771
293.15 K, x1 = 0.008679	0.8888
293.15 K, x1 = 0.01131	0.8997
293.15 K, x1 = 0.01335	0.9089
293.15 K, x1 = 0.01528	0.9166
298.15 K, x1 = 0.003438	0.8165
298.15 K, x1 = 0.006613	0.8287
298.15 K, x1 = 0.009181	0.8386
298.15 K, x1 = 0.01161	0.8485
298.15 K, x1 = 0.0137	0.8568
298.15 K, x1 = 0.01547	0.8639
303.15 K, x1 = 0.002196	0.7595
303.15 K, x1 = 0.004812	0.7687
303.15 K, x1 = 0.006882	0.7758
303.15 K, x1 = 0.008916	0.7832
303.15 K, x1 = 0.01094	0.7907
303.15 K, x1 = 0.01259	0.797
308.15 K, x1 = 0.003532	0.7213
308.15 K, x1 = 0.006367	0.7307
308.15 K, x1 = 0.008768	0.7387
308.15 K, x1 = 0.01108	0.7463
308.15 K, x1 = 0.01321	0.7538
308.15 K, x1 = 0.01506	0.7599

CCC(O)CO (stereo unspecified) + CN(C)C=O
308.15 K, 101 kPa
Details	viscosity [mPa·s]
x1 = 0.0519	0.748
x1 = 0.1008	0.855
x1 = 0.2013	1.113
x1 = 0.2983	1.444
x1 = 0.4099	2.065
x1 = 0.4883	2.645
x1 = 0.5694	3.576
x1 = 0.7139	7.387
x1 = 0.8896	16.22
x1 = 0.9489	21.9
